One block for each compound: values may come before it.
Key:
[1] = target: Mitogen-activated protein kinase 1 (Homo sapiens) (UniProt P28482); experiment: Percentage ERK2 activity remaining in the presence of 0.01uM inhibitor
[2] = target: T1, Serine/threonine-protein kinase 3 (Homo sapiens) (UniProt Q13188); experiment: Percentage MST2 activity remaining in the presence of 25uM inhibitor
T1 sequence (whole entry): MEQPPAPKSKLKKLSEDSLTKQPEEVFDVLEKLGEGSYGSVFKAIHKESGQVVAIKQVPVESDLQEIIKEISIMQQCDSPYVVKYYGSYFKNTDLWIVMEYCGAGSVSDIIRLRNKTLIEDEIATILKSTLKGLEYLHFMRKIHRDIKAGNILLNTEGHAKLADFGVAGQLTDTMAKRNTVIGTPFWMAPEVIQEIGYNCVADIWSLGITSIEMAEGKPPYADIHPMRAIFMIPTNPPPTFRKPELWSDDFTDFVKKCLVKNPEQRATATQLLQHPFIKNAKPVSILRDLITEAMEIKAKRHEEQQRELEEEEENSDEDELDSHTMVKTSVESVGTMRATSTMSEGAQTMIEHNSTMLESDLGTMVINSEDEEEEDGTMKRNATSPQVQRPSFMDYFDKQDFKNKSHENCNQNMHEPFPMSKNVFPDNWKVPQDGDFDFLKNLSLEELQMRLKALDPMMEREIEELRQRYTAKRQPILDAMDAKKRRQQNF

[3] = target: Ribosomal protein S6 kinase alpha-5 (Homo sapiens) (UniProt O75582); experiment: Percentage MSK1 activity remaining in the presence of 25uM inhibitor
[4] = target: T2, Inhibitor of nuclear factor kappa-B kinase subunit beta (Homo sapiens) (UniProt O14920); experiment: Percentage IKK-beta activity remaining in the presence of 25uM inhibitor
T2 sequence (whole entry): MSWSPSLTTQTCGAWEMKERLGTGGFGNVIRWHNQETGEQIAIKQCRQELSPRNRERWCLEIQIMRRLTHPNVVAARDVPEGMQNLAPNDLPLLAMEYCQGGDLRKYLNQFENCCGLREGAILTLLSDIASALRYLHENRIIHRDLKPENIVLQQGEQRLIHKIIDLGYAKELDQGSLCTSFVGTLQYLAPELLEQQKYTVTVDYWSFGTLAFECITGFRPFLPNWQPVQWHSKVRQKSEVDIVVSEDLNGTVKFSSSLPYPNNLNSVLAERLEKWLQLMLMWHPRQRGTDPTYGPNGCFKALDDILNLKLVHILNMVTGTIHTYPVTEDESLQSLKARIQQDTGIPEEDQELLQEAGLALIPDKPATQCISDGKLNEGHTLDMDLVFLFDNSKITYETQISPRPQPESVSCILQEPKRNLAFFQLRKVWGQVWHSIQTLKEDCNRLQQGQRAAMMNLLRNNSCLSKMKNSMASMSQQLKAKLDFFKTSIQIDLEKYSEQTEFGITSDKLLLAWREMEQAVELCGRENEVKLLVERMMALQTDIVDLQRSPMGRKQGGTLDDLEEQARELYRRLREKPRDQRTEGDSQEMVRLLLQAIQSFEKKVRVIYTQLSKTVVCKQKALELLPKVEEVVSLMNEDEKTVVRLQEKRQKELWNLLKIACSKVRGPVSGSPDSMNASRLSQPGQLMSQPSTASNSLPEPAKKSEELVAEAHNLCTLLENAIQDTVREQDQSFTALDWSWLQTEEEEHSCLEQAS

[5] = target: T3, Mitogen-activated protein kinase 13 (Homo sapiens) (UniProt O15264); experiment: Percentage p38delta activity remaining in the presence of 25uM inhibitor
T3 sequence (whole entry): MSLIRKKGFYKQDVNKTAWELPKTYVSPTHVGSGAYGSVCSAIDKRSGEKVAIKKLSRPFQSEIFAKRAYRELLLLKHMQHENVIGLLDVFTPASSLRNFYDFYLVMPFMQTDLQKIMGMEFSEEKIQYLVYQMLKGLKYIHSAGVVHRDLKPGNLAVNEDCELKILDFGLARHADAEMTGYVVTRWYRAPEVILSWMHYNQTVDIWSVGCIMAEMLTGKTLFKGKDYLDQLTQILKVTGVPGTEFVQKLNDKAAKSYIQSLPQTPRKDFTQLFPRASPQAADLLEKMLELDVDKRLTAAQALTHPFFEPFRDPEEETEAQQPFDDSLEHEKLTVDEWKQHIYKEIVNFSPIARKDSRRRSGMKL

[6] = target: Mitogen-activated protein kinase 9 (Homo sapiens, UniProt P45984); experiment: Percentage JNK2 activity remaining in the presence of 25uM inhibitor
[7] = target: Mitogen-activated protein kinase 8 (Homo sapiens, UniProt P45983); experiment: Percentage JNK1 activity remaining in the presence of 25uM inhibitor
[8] = target: T4, Serine/threonine-protein kinase Nek2 (Homo sapiens) (UniProt P51955); experiment: Percentage NEK2a activity remaining in the presence of 2uM inhibitor
T4 sequence (whole entry): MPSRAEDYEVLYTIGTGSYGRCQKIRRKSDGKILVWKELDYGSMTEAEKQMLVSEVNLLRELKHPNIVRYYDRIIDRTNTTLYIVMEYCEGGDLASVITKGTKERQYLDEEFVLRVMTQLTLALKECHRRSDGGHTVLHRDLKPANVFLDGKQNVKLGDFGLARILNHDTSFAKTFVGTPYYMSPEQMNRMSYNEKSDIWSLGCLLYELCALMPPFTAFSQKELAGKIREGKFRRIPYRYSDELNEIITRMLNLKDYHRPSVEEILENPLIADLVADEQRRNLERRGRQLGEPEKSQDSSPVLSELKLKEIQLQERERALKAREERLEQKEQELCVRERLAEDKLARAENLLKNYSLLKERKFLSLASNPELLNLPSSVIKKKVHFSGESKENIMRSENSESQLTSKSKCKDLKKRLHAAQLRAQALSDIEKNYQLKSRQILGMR

[9] = target: T1, Serine/threonine-protein kinase 3 (Homo sapiens); experiment: Percentage MST2 activity remaining in the presence of 2uM inhibitor; conditions: filed as antagonist
[10] = target: Aurora kinase B (Homo sapiens, UniProt Q96GD4); experiment: Percentage Aurora B activity remaining in the presence of 2uM inhibitor
[11] = target: RAC-alpha serine/threonine-protein kinase (Homo sapiens) (UniProt P31749); experiment: Percentage PKBalpha activity remaining in the presence of 2uM inhibitor
[12] = target: Homeodomain-interacting protein kinase 2 (Homo sapiens) (UniProt Q9H2X6); experiment: Percentage HIPK2 activity remaining in the presence of 3uM inhibitor
[13] = target: Serine/threonine-protein kinase pim-2 (Homo sapiens, UniProt Q9P1W9); experiment: Percentage PIM2 activity remaining in the presence of 3uM inhibitor
[14] = target: Serine/threonine-protein kinase pim-3 (Homo sapiens, UniProt Q86V86); experiment: Percentage PIM3 activity remaining in the presence of 3uM inhibitor
[15] = target: cAMP-dependent protein kinase catalytic subunit alpha (Homo sapiens, UniProt P17612); experiment: Percentage PKA activity remaining in the presence of 3uM inhibitor
[16] = species: Rattus norvegicus; experiment: Percentage AMPK activity remaining in the presence of 3uM inhibitor

Sequence of Mitogen-activated protein kinase 1 (Homo sapiens) (P28482 whole entry): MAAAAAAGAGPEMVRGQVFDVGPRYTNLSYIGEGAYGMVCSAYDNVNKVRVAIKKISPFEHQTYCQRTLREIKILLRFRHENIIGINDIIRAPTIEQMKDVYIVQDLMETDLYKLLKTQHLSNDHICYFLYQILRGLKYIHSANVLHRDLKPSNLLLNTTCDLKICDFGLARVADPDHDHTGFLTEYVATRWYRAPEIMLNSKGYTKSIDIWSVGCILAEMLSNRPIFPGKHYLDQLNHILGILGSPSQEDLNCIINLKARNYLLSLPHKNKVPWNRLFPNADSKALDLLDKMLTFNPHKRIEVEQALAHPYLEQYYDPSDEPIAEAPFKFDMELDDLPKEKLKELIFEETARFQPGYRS
Sequence of Ribosomal protein S6 kinase alpha-5 (Homo sapiens) (O75582 whole entry, looked up): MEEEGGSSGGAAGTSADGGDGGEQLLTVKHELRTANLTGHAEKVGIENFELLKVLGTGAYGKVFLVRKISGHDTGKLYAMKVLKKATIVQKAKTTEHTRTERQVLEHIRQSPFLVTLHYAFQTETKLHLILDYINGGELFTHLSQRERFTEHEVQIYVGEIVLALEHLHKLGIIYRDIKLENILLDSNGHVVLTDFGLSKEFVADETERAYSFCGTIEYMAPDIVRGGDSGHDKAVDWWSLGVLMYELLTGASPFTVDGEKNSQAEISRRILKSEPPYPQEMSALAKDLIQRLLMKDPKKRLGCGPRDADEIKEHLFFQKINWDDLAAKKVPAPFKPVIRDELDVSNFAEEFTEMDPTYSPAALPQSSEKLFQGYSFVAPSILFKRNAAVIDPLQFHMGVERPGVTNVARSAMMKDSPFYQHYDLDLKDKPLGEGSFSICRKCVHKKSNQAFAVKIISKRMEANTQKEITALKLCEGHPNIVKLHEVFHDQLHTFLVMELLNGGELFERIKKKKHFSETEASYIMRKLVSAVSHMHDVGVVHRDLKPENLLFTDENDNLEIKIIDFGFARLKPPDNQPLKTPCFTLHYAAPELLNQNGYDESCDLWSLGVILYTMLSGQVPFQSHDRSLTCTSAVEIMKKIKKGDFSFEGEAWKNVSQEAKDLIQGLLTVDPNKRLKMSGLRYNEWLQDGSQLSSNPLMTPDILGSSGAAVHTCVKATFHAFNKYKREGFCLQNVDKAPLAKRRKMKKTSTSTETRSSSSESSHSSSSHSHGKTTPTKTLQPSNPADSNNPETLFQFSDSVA
Sequence of RAC-alpha serine/threonine-protein kinase (Homo sapiens) (P31749 whole entry): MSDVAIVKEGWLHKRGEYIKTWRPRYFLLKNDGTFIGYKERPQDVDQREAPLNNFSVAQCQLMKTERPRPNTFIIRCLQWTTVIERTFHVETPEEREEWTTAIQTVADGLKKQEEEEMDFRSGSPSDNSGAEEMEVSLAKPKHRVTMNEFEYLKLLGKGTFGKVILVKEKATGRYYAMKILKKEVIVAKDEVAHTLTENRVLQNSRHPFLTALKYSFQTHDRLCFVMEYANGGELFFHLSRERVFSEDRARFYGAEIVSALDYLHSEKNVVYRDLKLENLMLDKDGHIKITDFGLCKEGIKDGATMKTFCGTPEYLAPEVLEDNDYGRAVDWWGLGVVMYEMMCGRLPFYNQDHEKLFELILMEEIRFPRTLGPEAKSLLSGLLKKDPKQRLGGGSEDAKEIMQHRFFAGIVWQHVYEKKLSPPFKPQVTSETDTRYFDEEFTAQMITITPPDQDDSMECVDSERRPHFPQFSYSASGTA
Sequence of Homeodomain-interacting protein kinase 2 (Homo sapiens) (Q9H2X6 whole entry, looked up): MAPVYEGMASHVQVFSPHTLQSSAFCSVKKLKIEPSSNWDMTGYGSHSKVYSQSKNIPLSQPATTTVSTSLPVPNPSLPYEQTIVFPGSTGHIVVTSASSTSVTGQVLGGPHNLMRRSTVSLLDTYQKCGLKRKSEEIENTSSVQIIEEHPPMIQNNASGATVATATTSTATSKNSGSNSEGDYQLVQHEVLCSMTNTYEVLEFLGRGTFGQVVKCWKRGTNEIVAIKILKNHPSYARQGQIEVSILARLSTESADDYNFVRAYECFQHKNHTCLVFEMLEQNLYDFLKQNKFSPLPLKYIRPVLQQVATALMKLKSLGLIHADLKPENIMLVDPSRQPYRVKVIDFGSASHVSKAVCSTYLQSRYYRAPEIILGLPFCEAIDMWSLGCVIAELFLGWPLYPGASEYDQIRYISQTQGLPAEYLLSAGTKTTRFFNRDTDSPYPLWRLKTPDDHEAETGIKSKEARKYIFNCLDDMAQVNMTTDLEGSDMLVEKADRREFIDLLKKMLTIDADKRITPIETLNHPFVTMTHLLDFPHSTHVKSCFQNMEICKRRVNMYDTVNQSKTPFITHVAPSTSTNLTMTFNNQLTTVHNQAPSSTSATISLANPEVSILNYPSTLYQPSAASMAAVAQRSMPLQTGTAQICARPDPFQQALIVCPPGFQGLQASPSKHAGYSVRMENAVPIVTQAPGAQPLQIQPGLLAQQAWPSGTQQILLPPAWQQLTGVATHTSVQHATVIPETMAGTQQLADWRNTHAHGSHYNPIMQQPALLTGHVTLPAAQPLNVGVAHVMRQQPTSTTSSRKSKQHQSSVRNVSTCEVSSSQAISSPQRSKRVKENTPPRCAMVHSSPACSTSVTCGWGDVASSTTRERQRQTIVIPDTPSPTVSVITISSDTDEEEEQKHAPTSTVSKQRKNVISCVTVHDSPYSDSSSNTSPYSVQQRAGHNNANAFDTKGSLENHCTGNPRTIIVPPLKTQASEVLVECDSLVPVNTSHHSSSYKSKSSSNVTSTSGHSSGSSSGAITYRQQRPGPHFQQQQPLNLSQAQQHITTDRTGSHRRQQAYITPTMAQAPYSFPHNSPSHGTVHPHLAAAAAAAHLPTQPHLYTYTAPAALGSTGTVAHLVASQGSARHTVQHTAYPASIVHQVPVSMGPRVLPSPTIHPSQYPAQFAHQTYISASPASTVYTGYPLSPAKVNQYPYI
Sequence of Aurora kinase B (Q96GD4 whole entry): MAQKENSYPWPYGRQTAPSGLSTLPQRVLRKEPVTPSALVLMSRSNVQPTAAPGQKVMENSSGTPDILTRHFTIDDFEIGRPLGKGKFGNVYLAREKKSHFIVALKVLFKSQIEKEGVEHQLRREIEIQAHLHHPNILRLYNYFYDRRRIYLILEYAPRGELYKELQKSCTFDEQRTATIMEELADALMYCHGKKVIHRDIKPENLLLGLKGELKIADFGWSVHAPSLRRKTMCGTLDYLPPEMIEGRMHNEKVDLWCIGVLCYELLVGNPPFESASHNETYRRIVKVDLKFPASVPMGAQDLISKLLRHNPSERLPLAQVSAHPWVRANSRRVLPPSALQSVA
Sequence of Serine/threonine-protein kinase pim-2 (Q9P1W9 whole entry, looked up): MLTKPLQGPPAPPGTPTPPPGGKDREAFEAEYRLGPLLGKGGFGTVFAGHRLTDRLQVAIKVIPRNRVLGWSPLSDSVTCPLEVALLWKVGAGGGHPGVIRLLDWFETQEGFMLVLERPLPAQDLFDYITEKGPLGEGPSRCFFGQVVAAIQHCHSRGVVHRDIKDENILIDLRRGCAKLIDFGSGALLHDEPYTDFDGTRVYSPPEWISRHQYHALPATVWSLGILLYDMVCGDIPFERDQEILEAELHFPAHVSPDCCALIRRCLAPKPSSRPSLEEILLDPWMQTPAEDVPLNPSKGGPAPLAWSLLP
Sequence of Mitogen-activated protein kinase 9 (P45984 whole entry, looked up): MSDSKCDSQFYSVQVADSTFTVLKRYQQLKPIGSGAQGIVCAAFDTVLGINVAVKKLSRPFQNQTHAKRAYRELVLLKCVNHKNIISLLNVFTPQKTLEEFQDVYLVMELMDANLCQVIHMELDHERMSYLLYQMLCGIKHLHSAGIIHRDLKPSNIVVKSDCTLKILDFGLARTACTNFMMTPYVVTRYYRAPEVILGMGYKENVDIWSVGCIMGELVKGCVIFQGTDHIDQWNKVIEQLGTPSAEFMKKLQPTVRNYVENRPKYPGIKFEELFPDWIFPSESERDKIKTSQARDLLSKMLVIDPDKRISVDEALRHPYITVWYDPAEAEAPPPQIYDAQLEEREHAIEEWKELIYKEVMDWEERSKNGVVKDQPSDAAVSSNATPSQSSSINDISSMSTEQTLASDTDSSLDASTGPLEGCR
Sequence of Mitogen-activated protein kinase 8 (P45983 whole entry): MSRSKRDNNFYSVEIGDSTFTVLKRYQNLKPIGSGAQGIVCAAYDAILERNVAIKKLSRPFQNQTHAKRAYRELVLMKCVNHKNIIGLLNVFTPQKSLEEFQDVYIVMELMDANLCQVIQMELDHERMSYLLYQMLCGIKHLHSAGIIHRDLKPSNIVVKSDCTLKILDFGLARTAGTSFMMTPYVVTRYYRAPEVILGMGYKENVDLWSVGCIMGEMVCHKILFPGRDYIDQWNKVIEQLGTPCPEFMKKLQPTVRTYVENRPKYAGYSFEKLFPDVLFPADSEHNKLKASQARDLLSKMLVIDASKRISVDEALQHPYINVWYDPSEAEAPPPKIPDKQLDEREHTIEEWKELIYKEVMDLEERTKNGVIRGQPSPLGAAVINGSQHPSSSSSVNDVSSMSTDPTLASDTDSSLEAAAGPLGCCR

Structure (SMILES): Cc1n[nH]c2ccc(-c3cncc(OC[C@@H](N)Cc4c[nH]c5ccccc45)c3)cc12
Activity [1]: 78%

Structure (SMILES): COc1cc(OC)c(/C=C2/C(=O)Nc3ccccc32)c(OC)c1
Activity [2]: 70% | Activity [3]: 88% | Activity [4]: 90% | Activity [5]: 91%

Activity [2]: 91% | Activity [6]: 87% | Activity [7]: 91% | Activity ([3]; filed as antagonist): 42% | Activity [4]: 87% | Activity [5]: 80%
Structure (SMILES): NCCNS(=O)(=O)c1ccc(Cl)c2ccncc12

Activity [8]: 74% | Activity [9]: 50% | Activity [10]: 87% | Activity [11]: 88%
Structure (SMILES): Cn1cc(C2=C(c3ccc(Cl)cc3Cl)C(=O)NC2=O)c2ccccc21

Activity [12]: 79% | Activity [13]: 85% | Activity [14]: 56% | Activity [15]: 85% | Activity [16]: 79%
Structure (SMILES): Cc1ccc(-c2c(C(=O)CF)n(CCCO)c3ncnc(N)c23)cc1

Activity [1]: 88%
Structure (SMILES): O=C(NCCCNc1nc(Nc2cccc(NC(=O)N3CCCC3)c2)ncc1I)c1cccs1
